Where two headings read alike, the source gives them in different places.
Experiments:
CDK2/CycA2 kinase = CDK2/CycA2 kinase (Homo sapiens (Human), UniProt P24941); experiment: Determination of inhibitory activity against CDK2/CycA2 kinase; type: biochemical
Description: The wells were set in duplicate, and a control well was set. […] The resulting mixture was left to react at room temperature for 2 h, and then 5 µL of EDTA was added to terminate the reaction, followed by addition of 5 μL of a detection antibody (manufacturer: PerkinElmer, concentration: 8 nM). The mixture was incubated at room temperature for 1 h.

CDK2 CycE1 kinase = CDK2 CycE1 kinase (Homo sapiens (Human), UniProt P24941); experiment: Determination of inhibitory activity against CDK2 CycE1 kinase; type: biochemical
Description: CDK2 CycE1 kinase solution (concentration: 0.015 ng/μL) was added to assay wells at 6 μL/well, and different compounds dissolved in DMSO were added to the assay wells separately using a nanoliter pipettor, such that the final concentrations of the compounds were 300 nM to 0.07 nM. The wells were set in duplicate, and a control well was set. After incubation of the above system for 30 min, ATP (concentration: 50 μM or 5000 μM) was mixed with ULight-Myelin Basic Protein Peptide substrate (manufacturer: PerkinElmer, concentration: […]) at a ratio of 1:1, and the mixture was added to the assay wells at 4 μL/well. The resulting mixture was left to react at room temperature for 2 h, and then 5 μL of EDTA was added to terminate the reaction, followed by addition of 5 μL of a detection antibody (manufacturer: PerkinElmer, concentration: 8 nM). The mixture was incubated at room temperature for 1 h.

[1] = read-out: CDK2/CycA2 10 μM ATP (kinase) IC50
[2] = read-out: CDK2/CycE1 10 μM ATP (kinase) IC50

Structure (SMILES)	IC50 (CDK2/CycA2 kinase; 10 μM ATP) [nM]	IC50 (CDK2 CycE1 kinase; 10 μM ATP) [nM]	IC50 (CDK2/CycA2 kinase; [1]) [nM]	IC50 (CDK2 CycE1 kinase; [2]) [nM]
CC(C)NC(=O)O[C@@H]1CC[C@H](c2cc(Nc3ccc(-c4cnco4)cn3)n[nH]2)C1 [Example 36]	10 to 50	< 10		
CC(C)NC(=O)O[C@@H]1CC[C@H](c2cc(Nc3ccc(N4CCCC4=O)c(Cl)n3)[nH]n2)C1 [Example 57]			< 10	< 10
CC(C)NC(=O)O[C@@H]1CC[C@H](c2cc(Nc3ccc(NS(C)(=O)=O)c(OC(F)F)c3)n[nH]2)C1 [Example 71]			< 10	< 10
COc1cc(Nc2cc([C@H]3CC[C@@H](OC(=O)NC(C)C)C3)[nH]n2)ccc1NS(C)(=O)=O [Example 55]	< 10	< 10		
CC(C)NC(=O)O[C@@H]1CC[C@H](c2cc(Nc3ccc(N=S(C)(C)=O)cc3)n[nH]2)C1 [Example 59]	10 to 50	10 to 50		
COCc1ccc(Nc2cc(C3CCC(OC(=O)NC(C)C)C3)[nH]n2)nc1 (stereo not shown) [Example 18]	10 to 50	10 to 50		
CC(C)NC(=O)O[C@@H]1CC[C@H](c2cc(Nc3ccc4c(c3)CS(=O)(=O)N4)n[nH]2)C1 [Example 43]			< 10	< 10
CC(C)NC(=O)O[C@H]1CC[C@@H](c2cc(Nc3ccc(S(N)(=O)=O)cc3F)n[nH]2)C1 [Example 34]	< 10	< 10		
CC(C)NC(=O)O[C@@H]1CC[C@H](c2cc(NC3CCN(S(=O)(=O)c4cnn(C)c4)CC3)n[nH]2)C1 [Example 60]	10 to 50	10 to 50		
CC(C)NC(=O)O[C@@H]1CC[C@H](c2cc(Nc3ccc(N(C)S(C)(=O)=O)cn3)n[nH]2)C1 [Example 2]	10 to 50	10 to 50		
CC1(NC(=O)O[C@@H]2CC[C@H](c3cc(Nc4ccc5c(c4)CS(=O)(=O)C5)n[nH]3)C2)CC1 [Example 48]	< 10	< 10		
CC(C)NC(=O)O[C@@H]1CC[C@H](c2cc(Nc3ccc(NS(=O)(=O)C4CC4)cn3)n[nH]2)C1 [Example 8]	< 10	< 10		
CC(C)NC(=O)O[C@@H]1CC[C@H](c2cc(Nc3ccc(S(N)(=O)=O)cc3F)n[nH]2)C1 [Example 25]	< 10	< 10		
CC(C)NC(=O)O[C@@H]1CC[C@H](c2cc(Nc3ccc(NS(C)(=O)=O)c(F)c3)n[nH]2)C1 [Example 23]	< 10	< 10		
CC(C)NC(=O)OC1CCC(c2cc(Nc3ccc4c(n3)OCC4)n[nH]2)C1 (stereo not shown) [Example 21]	< 10	< 10		
COc1ccc(Nc2cc([C@H]3CC[C@@H](OC(=O)NC(C)C)C3)[nH]n2)nc1 [Example 9]	10 to 50	< 10		
CC(C)NC(=O)O[C@@H]1CC[C@H](c2cc(Nc3ccc4c(c3)OCO4)n[nH]2)C1 [Example 39]	< 10	< 10		
CC(C)NC(=O)OC1CCC(c2cc(Nc3ncc(NS(C)(=O)=O)cn3)n[nH]2)C1 (stereo not shown) [Example 19]	10 to 50	< 10		
CC(C)NC(=O)O[C@@H]1CC[C@H](c2cc(Nc3ccc4c(c3)CC(=O)N4)n[nH]2)C1 [Example 42]	< 10	< 10		
CC(=O)Nc1ccc(Nc2cc([C@H]3CC[C@@H](OC(=O)NC(C)C)C3)[nH]n2)nc1 [Example 6]	< 10	< 10		
CNC(=O)O[C@@H]1CC[C@H](c2cc(Nc3ccc4c(c3)CS(=O)(=O)C4)n[nH]2)C1 [Example 53]	< 10	< 10		
COCCNc1ccc(Nc2cc(C3CCC(OC(=O)NC(C)C)C3)[nH]n2)nc1 (stereo not shown) [Example 20]	10 to 50	10 to 50		

Structure (SMILES)	IC50 (CDK2/CycA2 kinase; 10 μM ATP) [nM]	IC50 (CDK2 CycE1 kinase; 10 μM ATP) [nM]	IC50 (CDK2/CycA2 kinase; [1]) [nM]	IC50 (CDK2 CycE1 kinase; [2]) [nM]
CC(C)NC(=O)O[C@@H]1CC[C@H](c2cc(Nc3ccc(NS(C)(=O)=O)c(C(F)(F)F)n3)n[nH]2)C1 [Example 11]	< 10	< 10		
[2H]C([2H])([2H])C([2H])(NC(=O)O[C@@H]1CC[C@H](c2cc(Nc3ccc(S(N)(=O)=O)c(Cl)n3)n[nH]2)C1)C([2H])([2H])[2H] [Example 77]	< 10	< 10		
CC(C)NC(=O)O[C@@H]1CC[C@H](c2cc(Nc3ccc(S(=N)(=O)C4CC4)cc3)n[nH]2)C1 (stereo partly shown) [Example 62]	< 10	< 10		
CC(C)NC(=O)O[C@@H]1CC[C@H](c2cc(Nc3ccc(S(N)(=O)=O)cc3)n[nH]2)C1 [Example 65]	< 10	< 10		
CC(C)NC(=O)O[C@@H]1CC[C@H](c2cc(Nc3ccc(N4CCCS4(=O)=O)cn3)n[nH]2)C1 [Example 28]	< 10	< 10		
CC(C)NC(=O)OC1CCC(c2cc(NC3CCN(S(C)(=O)=O)CC3)n[nH]2)C1 (stereo not shown) [Example 22]	10 to 50	10 to 50		
CC(C)NC(=O)O[C@@H]1CC[C@H](c2cc(Nc3ccc(NS(C)(=O)=O)c(F)c3F)n[nH]2)C1 [Example 37]	< 10	< 10		
CNS(=O)(=O)c1ccc(Nc2cc(C3CCC(OC(=O)NC(C)C)C3)[nH]n2)c(F)c1 (stereo not shown) [Example 16]	< 10	< 10		
CC(C)NC(=O)O[C@@H]1CC[C@H](c2cc(Nc3ccc(N4CCCC4=O)cn3)n[nH]2)C1 [Example 14]	< 10	< 10		
CC(C)NC(=O)O[C@@H]1CC[C@H](c2cc(Nc3ccc(NS(C)(=O)=O)c(Cl)c3)n[nH]2)C1 [Example 40]	< 10	< 10		
CC(C)NC(=O)O[C@@H]1CC[C@H](c2cc(Nc3ccc(NS(C)(=O)=O)cc3)n[nH]2)C1 [Example 7]	< 10	< 10		
CC(C)NC(=O)O[C@@H]1CC[C@H](c2cc(Nc3ccc(S(C)(=N)=O)c(Cl)c3)n[nH]2)C1 (stereo partly shown) [Example 73]			< 10	< 10
CC(C)NC(=O)O[C@@H]1CC[C@H](c2cc(Nc3ccc(NS(C)(=O)=O)c(F)n3)n[nH]2)C1 [Example 24]	< 10	< 10		
CC(C)NC(=O)O[C@@H]1CC[C@H](c2cc(Nc3ccc(S(=O)(=O)NC4CC4)cn3)n[nH]2)C1 [Example 68]	< 10	< 10		
CC(C)NC(=O)O[C@@H]1CC[C@H](c2cc(Nc3ccc(S(N)(=O)=O)c(C(F)(F)F)c3)n[nH]2)C1 [Example 66]	< 10	< 10		
CC(C)NC(=O)O[C@@H]1CC[C@H](c2cc(Nc3ccc(NS(C)(=O)=O)nc3)n[nH]2)C1 [Example 15]	< 10	< 10		
CC(C)NC(=O)O[C@@H]1CC[C@H](c2cc(Nc3ccc(C#N)cc3)n[nH]2)C1 [Example 72]	< 10	< 10		
CC(C)NC(=O)O[C@@H]1CC[C@H](c2cc(Nc3ccc(CN(C)C)cc3F)n[nH]2)C1 [Example 10]	10 to 50	< 10		
CC(C)NC(=O)O[C@@H]1CC[C@H](c2cc(Nc3cc(F)c(NS(C)(=O)=O)cc3F)n[nH]2)C1 [Example 32]	< 10	< 10		
CC(C)NC(=O)O[C@@H]1CC[C@H](c2cc(Nc3ccc(S(N)(=O)=O)c(Cl)n3)n[nH]2)C1 [Example 52]	< 10	< 10		
CC(C)NC(=O)O[C@@H]1CC[C@H](c2cc(Nc3ccc(S(C)(=N)=O)c(F)c3)n[nH]2)C1 (stereo partly shown) [Example 70]			< 10	< 10
CC(C)NC(=O)O[C@@H]1CC[C@H](c2cc(Nc3ccc(NS(C)(=O)=O)cc3F)n[nH]2)C1 [Example 3]	< 10	< 10		

Reference: US20250084067A1, “PYRAZOLE-SUBSTITUTED CYCLOPENTANOL ESTER DERIVATIVE AND USE THEREOF” (CHIA TAI TIANQING PHARMACEUTICAL GROUP CO., LTD., priority 2022, published 2025)
